According to patent US20180044316A1, “POTENTIATORS OF BETA-LACTAM ANTIBIOTICS” (UNIVERSITY OF NOTRE DAME DU LAC, priority 2015, published 2018):
Several values for one entry are separate records, joined by “and”; a condition that tells them apart may be missing. Equal values may be shown once. Read-outs that look alike come from different tables or passages of the source.

Columns and labels:
[1] = test system: BlaR1 phosphorylation; test: BlaR1 phosphorylation by western blot in CBAP-induced NRS128 whole-cell extracts; type: cell-based, Staphylococcus aureus NRS128; details: NRS128 induced with 10 μg/mL CBAP, compound at 7 or 17 μg/mL
Procedure: Next, we tested the effect of exposure of CBAP-induced NRS128 to this kinase inhibitor. Cultures were induced with 10 μg/mL CBAP in the presence of 0, 7, or 17 μg/mL of compound 1. Whole-cell extracts of these bacteria were analyzed for BlaR1 phosphorylation by western blot using anti-Phos-Ser and anti-Phos-Tyr antibodies. Compound 1 inhibited both the phosphotyrosine and phosphoserine kinase activities by as much as 70-90% (FIG. 4).
Detection of BlaR1 phosphorylation in presence of antibiotic. As we had disclosed in a recent publication on fragmentation of BlaR1 during the course of induction, we detect a cleavage at position S283-F284 of BlaR1 (Llarrull et al., J. Biol. Chem. 2011, 286, 38148-38158). This proteolytic cleavage cuts the BlaR1 protein into two fragments of roughly equal sizes (approx. 30-31 kDa). […]
Extracts were prepared as previously described in buffer containing 50 mM Tris pH 7.5, 150 mM NaCl, 2 mM EDTA, 0.55% SDS, 2.5% Triton X-100, and Halt Protease and Phosphatase Inhibitor Cocktail (Thermo Scientific, Waltham, Mass., U.S.A.) and analyzed by Western blot using antibodies against phosphothreonine, phosphotyrosine, and phosphoserine. A ˜30 kDa protein band was detected by the phosphotyrosine and phosphoserine specific antibodies only in cell extracts of S. aureus cells grown with CBAP (FIG. 2). This band was not detected by the phosphothreonine antibody. […]

[2] = test system: S. aureus MRSA252; test: MIC determination (broth microdilution), oxacillin with or without kinase inhibitor; type: cell-based, Staphylococcus aureus; details: for MIC: Staphylococcus aureus; for MIC of oxacillin in the presence of compound: compound at 7 μg/mL
Procedure: A protein-kinase inhibitor library of 80 known compounds was tested in a 96-well format against strain MRSA252 for the screening. We first determined MICs (broth microdilution method) (CLSI, Performance Standards for Antimicrobial Susceptibility Testing; Twenty-Second Informational Supplement. CLSI document M100-S22. Clinical and Laboratory Standards Institute; Wayne, Pa.) for all the inhibitors in the library, in case some of them might have antibacterial properties of their own, which could complicate the analysis.
This rapid initial screening identified compound 1 as meeting the selection criteria of lowering the MIC for oxacillin, which was followed up by the actual evaluation of the MIC of oxacillin against S. aureus MRSA252 in the presence of the inhibitor.
(§1) Minimal-inhibitory concentration (MIC) determination. Determination of MICs was done by the microdilution method cation-adjusted in Mueller-Hinton II Broth (CAMHB II, BBL) in accordance with the protocols of CLSI (Performance Standards for Antimicrobial Susceptibility Testing; Twenty-Second Informational Supplement. CLSI document M100-S22. Clinical and Laboratory Standards Institute Wayne, Pa.). A final bacterial inoculum of 5×10^5 CFU/mL was used, and the results were recorded after incubation for 16-20 h at 37° C.

[3] = target: T1, Stk1 protein kinase (Staphylococcus aureus, UniProt A0ABF7PGK0); test: In vitro phosphorylation assay: Stk1 autophosphorylation; type: biochemical, S. aureus strain NRS70; details: IC50, inhibition of Stk1 autophosphorylation, [γ-32P]-ATP 20 μM
Excerpt: (§2) Cloning, expression, and purification of S. aureus Stk1 protein kinase. The stk1 gene for Stk1 protein kinase (SA1063 in S. aureus NRS70) is conserved in all known genomic sequences for S. aureus (Beltramini et al., Infect. Immun. 77, 1406-1416 (2009); Débarbouillé et al., J. Bacteriol. 191, 4070-4081 (2009); Didier et al., FEMS Microbiol. Lett. 306, 30-36 (2010)). We PCR-amplified the DNA fragment corresponding to the entire coding sequences of stk1 from S. aureus strain NRS70 chromosomal DNA with primers STK1fw (5′-[…] […]-3′) and STK1rev (5′-[…] […]-3′). The amplified DNA fragments were then digested with NdeI and XhoI restriction enzymes and cloned into pET28a. After verification of the inserts by DNA sequencing on both strands, the resulting plasmid (termed pETstk1) was introduced into E. coli strain BL21(DE3) for protein expression.
(§3) For purification of Stk1, 5 mL of an overnight culture of BL21(DE3) harboring pETstk1 was inoculated into 500 mL fresh LB medium and grown at 37° C. until the OD600 reached 0.8. Isopropyl β-D-1-thiogalactopyranoside (IPTG) was then added to the culture to a final concentration of 0.5 mM and the culture was shaken at 15° C. overnight. The culture was then centrifuged at 5000 rpm at 4° C. for 15 min. The pellet was resuspended in 20 mL of lysis buffer (25 mM HEPES, 500 mM NaCl, 10 mM imidazole, pH 7.4). After sonication, the lysate was centrifuged at 18,000 g at 4° C. for 45 min. The resulting supernatant containing the His-tagged Stk1 was loaded onto a 5-mL Hitrap Chelating column (GE Healthcare), followed by elution with a linear gradient of imidazole (0-500 mM) in lysis buffer. The fractions containing Stk1 were pooled, concentrated and the buffer was exchanged to 25 mM HEPES, pH 7.4. The resulting sample was then subjected to Q anion-exchange chromatography and eluted with a linear gradient of NaCl (0-1 M). Protein purity was ascertained by sodium dodecyl sulfate polyacrylamide gel electrophoresis (SDS-PAGE) (FIG. 7).
(§4) In vitro phosphorylation assay. […] Band intensities were quantified using GelQuant software. […]

[4] = target: T1, Stk1 protein kinase; test: In vitro phosphorylation assay: phosphorylation of myelin basic protein (MBP) by Stk1; type: biochemical, S. aureus strain NRS70; details: IC50, inhibition of MBP phosphorylation by Stk1, [γ-32P]-ATP 20 μM
Excerpt: as §2, §3, §4

[5] = test system: BlaR1 phosphorylation; test: BlaR1 phosphorylation by western blot in CBAP-induced NRS70 whole-cell extracts; type: cell-based, Staphylococcus aureus NRS70; details: for tyrosine phosphorylation of the BlaR1 fragment: NRS70, CBAP-induced, 7 μg/mL inhibitor; for serine phosphorylation of BlaR1 fragment: NRS70, even at 17 μg/mL
Procedure: We then evaluated the ability of compounds 10, 11 or 12 to inhibit tyrosine phosphorylation of BlaR1 in NRS70 extracts. The bacteria were grown under the conditions described earlier for NRS128, induced by CBAP in the absence and presence of 0.7 μg/mL or 7 μg/mL compounds 10, 11 or 12, and analyzed by western blot using antibody against phosphotyrosine (FIG. 5a). […] However, serine phosphorylation was not inhibited by any of these compounds, even at 17 μg/mL (FIG. 6), in contrast to the case of 1, which had inhibited both. This provides evidence for the critical nature of tyrosine phosphorylation for regulation of BlaR1.
To overcome this, we subsequently cleared all S. aureus extracts of Protein A and other immunoglobulin-binding proteins by incubation with IgG Sepharose (GE Healthcare, Little Chalfont, UK) for 1-2 h at room temperature with gentle agitation. After a brief centrifugation, the total protein in the supernatant was quantified by a BCA assay and 20 μg was loaded onto an 11% SDS-PAGE gel. Following electrophoresis, samples were transferred to a nitrocellulose membrane in a 10 mM CAPS (pH 11) buffer containing 10% methanol. Membranes were blocked in 3% BSA for phosphoserine blots or Blotto (3% BSA, 3% milk in TBS) for phosphotyrosine blots. HRP-conjugated primary antibody was applied in either 1% BSA/TBST (phosphoserine, Abcam, Cambridge, UK) or 1.1% milk/TBST (phosphotyrosine, 4G10 Platinum, EMD Millipore, Billerica, Mass., U.S.A.). Phosphoserine blots were developed with Pierce ECL Substrate (Thermo Scientific) and phosphotyrosine blots were developed with SuperSignal West Dura Extended Duration Substrate (Thermo Scientific), then exposed to X-ray film for an appropriate amount of time (30-600 s).

[6] = test system: MRSA strain NRS70; test: MIC determination (broth microdilution), oxacillin with or without kinase inhibitor; type: cell-based, Staphylococcus aureus; details: for MIC of oxacillin in the presence of compound: compound at 7 μg/mL
Excerpt: (§5) We evaluated the new imidazole analogues for their ability to lower the MIC of oxacillin against MRSA in the same manner as for the kinase inhibitor library. In addition to MRSA252, we expanded our investigation to include strains NRS123 and NRS70, both of which have 95% sequence identities between their BlaR1 proteins and that of NRS128, with the bla operon encoded on plasmids (pMW2 and pN315, respectively).
as §1

[7] = test system: MRSA strain NRS123; test: as above; type: cell-based, Staphylococcus aureus; details: for MIC of oxacillin in the presence of compound: compound at 7 μg/mL
Excerpt: as §5, §1

[8] = Staphylococcus aureus, no inhibitor

| MIC ([2]; without oxacillin, read-out: MIC of the kinase inhibitor alone) [µg/mL] | decrease in the MIC of oxacillin ([2]; inhibitor at 7 μg/mL) | SMILES | inhibition of phosphoserine kinase activity (BlaR1 phosphorylation) ([1]; anti-Phos-Ser western blot) | inhibition of phosphotyrosine kinase activity (BlaR1 phosphorylation) ([1]; anti-Phos-Tyr western blot) | IC50 [3] | IC50 [4] | tyrosine phosphorylation of the BlaR1 fragment [5] | serine phosphorylation of BlaR1 fragment [5] | MIC of oxacillin in the presence of compound [6] [µg/mL] | MIC of oxacillin in the presence of compound [7] [µg/mL] | MIC of oxacillin in the presence of compound [2] [µg/mL] | MIC [6, 8] [µg/mL] | MIC [7, 8] [µg/mL] | MIC ([2]; no inhibitor, read-out: MIC of oxacillin) [µg/mL] |
| --- | --- | --- | --- | --- | --- | --- | --- | --- | --- | --- | --- | --- | --- | --- |
| ≥ 64 | four-fold decrease | Oc1ccc(-c2nc(-c3ccc(F)cc3)c(-c3ccncc3)[nH]2)cc1 [Compound 1, reference compound] | 70-90% | 70-90% |  |  |  |  |  |  |  |  |  |  |
|  |  | CC(C)(C)c1ccc(-c2nc(-c3ccc(F)cc3)c(-c3ccncc3)[nH]2)cc1 [Compound 10, 2-(4-tert-Butylphenyl)-4-(4-fluorophenyl)-5-(4-pyridyl)imidazole] |  |  | 8.35 µM and 8.8 µM | 5.65 µM and 6.1 µM | almost completely abolished | not inhibited | 4 | 8 | 2 |  |  |  |
|  |  | CCc1ccc(-c2nc(-c3ccc(F)cc3)c(-c3ccncc3)[nH]2)cc1 [Compound 11, 2-(4-Ethylphenyl)-4-(4-fluorophenyl)-5-(4-pyridyl)imidazole] |  |  | 14.6 µM and 14.9 µM and 14.7 µM | 11.6 µM and 12.2 µM and 12 µM | almost completely abolished | not inhibited | 0.5 | 4 | 16 |  |  |  |
|  |  | CC(C)Cc1ccc(-c2nc(-c3ccc(F)cc3)c(-c3ccncc3)[nH]2)cc1 [Compound 12, 2-(4-iso-Butylphenyl)-4-(4-fluorophenyl)-5-(4-pyridyl)imidazole] |  |  | 16.2 µM and 17 µM and 18 µM | 16.2 µM and 15.3 µM | almost completely abolished | not inhibited | 0.5 | 4 | 4 |  |  |  |
|  |  | Cc1onc(-c2ccccc2)c1C(=O)N[C@@H]1C(=O)N2[C@@H]1SC(C)(C)[C@@H]2C(=O)O [oxacillin, reference compound] |  |  |  |  |  |  |  |  |  | 32 | 16 | 256 |
